Reference: patent publication US11419870B2, “Intermittent dosing of MDM2 inhibitor” (Novartis AG, priority 2014, dated 2022)
Several values for one entry are separate records, joined by “and”; a condition that tells them apart may be missing. Equal values may be shown once.

Tests used:
SJSA-1 tumor [1] = experiment: Efficacy on SJSA-1 tumor-bearing nude rat (tumor volume); assay type: in vivo; details: for tumor regression in average: one week post treatment
[2] = test system: melanoma patient derived xenograft (PDX); experiment: Efficacy in melanoma patient derived xenograft bearing rat (per os); assay type: in vivo; details: 27 mg/kg q3w per os
Excerpt: The same experiments were repeated with melanoma PTX bearing rat.

Cdkn1 a (p21) = experiment: Pharmacodynamic qRT-PCR: p21 mRNA induction in SJSA-1 tumor; assay type: in vivo, nude rat
Excerpt: (§1) At the times indicated, animals were anaesthetized by exposure to 2-3% v/v isofluorane in medical oxygen: • Either the animal was killed without recovering from anesthetic after blood sampling. Blood was collected into commercially prepared EDTA coated tubes (Milian, cat #TOM-14C) in order to extract plasma. The tissues were excised, weighed and rapidly frozen in liquid nitrogen. • Or a tumor biopsy was collected by using a biopsy gun and flushing the needle with RLT buffer in Barney rubble tubes (Covaris, cat #520048). In addition, 20 μl of blood may have been collected from the tail vein and diluted in 20 μl of water. After recovery of anesthesia, animals were transferred in their respective cages.
(§2) Frozen tissues were cryogenic dry pulverized and biopsies were sonicated using the CryoPrep™ system (model CP-02) from Covaris. More specifically, frozen tissues were transferred to disposable tubes called TissueTubes™, placed in the CryoPrep™ system and then pulverized using the appropriate impact setting. The resulting powder was collected with a spatula and weighed for further processing (mRNA purification or quantification of compound in tissues). The biopsies were flushed in a Barney rubble glass tubes with 350 μl of RLT buffer and placed in the Covaris for sonication (1 min per biopsy). The resulting lysate was transferred into a QIAshredder (79654, Qiagen) column for RNA extraction.
(§3) Total RNA was purified from cell pellets using the QIAshredder (79654, Qiagen) and RNeasy Mini Kit (74106, Qiagen) according to the manufacturer's instructions, with the exception that no DNA digestion was performed. Total RNA was eluted with 50 μL of RNase-free water. Total RNA was quantitated using the spectrophotometer ND-1000 Nanodrop®. The qRT-PCR (Quantitative Reverse Transcriptase Polymerase Chain Reaction) was set up in triplicate per sample using the One-Step RT qPCR Master Mix Plus (RT-QPRT-032X, Eurogentec), with either control primers and primers for the target, namely TaqMan Gene Expression assays (20× probe dye FAM™ (or VIC)-TAMRA (or MGB); Applied Biosystems) listed in Table 1.

SJSA-1 tumor [3] = experiment: Efficacy on SJSA-1 tumor-bearing nude rat (tumor volume); assay type: in vivo
Protocol: Subcutaneous tumors were induced by concentrating 1.0×10^7 SJSA-1 cells in 50% Matrigel® and injecting in the right flank of Harlan nude rats. Efficacy experiment could start 14 days post cell injection. […] The animals were treated either at a high dose (20 mg/kg i.v. or 27 mg/kg p.o.) once every 3 weeks (q3w) or at a high dose (15 mg/kg p.o.) followed 24 h later by a daily low dose treatment (3 mg/kg p.o., 2 weeks on/2 weeks off).
The tumor volume (TVol) and body-weight (BW) of the animal were measured three times per week allowing calculation at any particular time-point relative to the day of initiation of treatment (day 0) of the percentage change in TVol (Δ% TVol). Tumor response was quantified by the change in tumor volume (endpoint minus starting value in mm^3) as the T/C i.e.
[formula] In the case of a tumor regression or to assess the percentage of change in TVol, the tumor response was quantified by the percentage of regression of the starting TVol, ie

Rat Bbc3 (PUMA) = experiment: mRNA in situ hybridization of host tissues; assay type: in vivo; details: i.v. 20 mg/kg
Protocol: In situ hybridization was performed using the QuantiGene ViewRNA FFPE Assay kit (Affymetrix/Panomics) following the manufacturer's protocol. Gene-specific probe sets for rat Ubc (Ubiquitin C) and Bbc3 (PUMA) mRNAs were custom-designed and synthesized by Affymetrix. Bbc3 probes were used in type 1/Fast Red and Ubc probes were used in type 6/Fast Blue. Slides were processed strictly following the QuantiGene protocol. […] Briefly, five micrometer sections were cut, fixed in 10% formaldehyde, deparaffinized and rehydrated. In order to increase accessibility to mRNAs, slides were then boiled in pre-treatment solution (Affymetrix) and digested with protease QF (Affymetrix) at optimal conditions. Sections were then hybridized for 3 h at 40° C. with custom-designed QuantiGene ViewRNA probes against Bbc3 and the control gene Ubc. A no-probe sample was utilized as a negative control per the Affymetrix manual's recommendations. […] LP-AP type 6 probe detection of signal was done with Fast Blue substrate (blue dots, Cy5 fluorescence) for 30 mn at RT in the dark, followed by LP-AP type 1 probe detection of signal with Fast Red Substrate (red dots, Cy3 fluorescence) for 30 mn at 40° C. […]

BBC3 (puma) = experiment: Pharmacodynamic qRT-PCR: Puma mRNA induction in SJSA-1 tumor; assay type: in vivo, Human
Excerpt: as §1, §2, §3

[4] = i.v. q3w 13.7 mg/kg, week 1 post treatment
[5] = i.v. q3w 13.7 mg/kg, week 2 post treatment
[6] = i.v. q3w 18.2 mg/kg, week 1 post treatment
[7] = i.v. q3w 18.2 mg/kg, week 2 post treatment
[8] = i.v. q3w 18.2 mg/kg, week 3 post treatment
[9] = i.v. q3w 18.2 mg/kg, week 5 post treatment
[10] = i.v. q3w 20 mg/kg, three weeks post first treatment
[11] = after first p.o. treatment, 20 and 27 mg/kg
[12] = after first single i.v. treatment 20 mg/kg
[13] = single i.v. 20 mg/kg, 24 h post treatment, tumor
[14] = single oral 27 mg/kg, 48 h post treatment, tumor

COc1ncc(-c2nc3c(n2C(C)C)[C@H](c2ccc(Cl)cc2)N(c2cc(Cl)cn(C)c2=O)C3=O)c(OC)n1 [Compound A, (S)-5-(5-Chloro-1-methyl-2-oxo-1,2-dihydro-pyridin-3-yl)-6-(4-chloro-phenyl)-2-(2,4-dimethoxy-pyrimidin-5-yl)-1-isopropyl-5,6-dihydro-1H-pyrrolo[3,4-d]imidazol-4-one]
tumor cell density (SJSA-1 tumor [1]; higher single dose, 48 and 72 h post-treatment): dramatic decrease
tumor growth (SJSA-1 tumor [1]; i.v. 13.7 mg/kg, after two weeks): re-growing
tumor regression in average (SJSA-1 tumor [1]; i.v. 13.7 mg/kg): 66%
tumor regression in average (SJSA-1 tumor [1]; i.v. 18.2 mg/kg): 88%
tumor regression (SJSA-1 tumor [1]; i.v. 18.2 mg/kg, three weeks post treatment): 36%
CR (SJSA-1 tumor [1]; [4]): 1/6
ΔTvol (%) (SJSA-1 tumor [1]; [4]): −66 ± 9%
CR (SJSA-1 tumor [1]; [5]): 0/6
ΔTvol (%) (SJSA-1 tumor [1]; [5]): 4 ± 37%
CR (SJSA-1 tumor [1]; [6]): 0/5
ΔTvol (%) (SJSA-1 tumor [1]; [6]): −80 ± 2%
CR (SJSA-1 tumor [1]; [7]): 2/5
ΔTvol (%) (SJSA-1 tumor [1]; [7]): −79 ± 11%
CR (SJSA-1 tumor [1]; [8]): 2 and 2/5
ΔTvol (%) (SJSA-1 tumor [1]; [8]): −36 ± 37%
CR (SJSA-1 tumor [1]; [9]): 2/5
ΔTvol (%) (SJSA-1 tumor [1]; [9]): 22 ± 63%
CR (SJSA-1 tumor [1]; i.v. q3w 18.2 mg/kg, week 6 post treatment): 2/5
ΔTvol (%) (SJSA-1 tumor [1]; i.v. q3w 18.2 mg/kg, week 6 post treatment (after the second treatment)): 118% and 118 ± 104%
rats with complete response (100% regression) (SJSA-1 tumor [1]; [10]): 3
rats with progressive disease (SJSA-1 tumor [1]; [10]): 1
rats with stable disease (SJSA-1 tumor [1]; [10]): 1
effect of combining two dosing schedules (SJSA-1 tumor [1]; intermittent (15 mg/kg once) plus daily dosing (1.5 mg/kg)): highly synergistic effect
tumor regression (SJSA-1 tumor [1]; p.o. q3w 20 mg/kg, three weeks post first treatment): 27%
SJSA-1 tumor regression (SJSA-1 tumor [1]; p.o. q3w 27 mg/kg, after one cycle (three weeks post first treatment)): 88%
response of regrown tumors to retreatment (SJSA-1 tumor [1]; retreated i.v. at 15 mg/kg): still sensitive
tumors with incomplete response and regrowth (SJSA-1 tumor [1]; single i.v. 20 mg/kg): 2 of 11
tumor regression (SJSA-1 tumor [1]; single i.v. 20 mg/kg, 14 days post treatment): 92%
complete SJSA-1 tumor response (100% regression), share of treated rat (SJSA-1 tumor [1]; single i.v. 20 mg/kg, for 42 days): 82%
efficacy of intermittent dosing [2]: showed efficacy
p21 mRNA expression in tumor (Cdkn1 a (p21); [11]): dose-dependently increased
p21 mRNA expression increase in tumor (Cdkn1 a (p21); [12]): more than 50 fold
p21 mRNA expression max (Cdkn1 a (p21); [13]): 200 fold
p21 mRNA induction Emax (Cdkn1 a (p21); [14]): 180 fold
tumor regression (SJSA-1 tumor [3]; i.v. q3w 20 mg/kg, after the second treatment): 100%
rats with partial response (more than 50% regression) (SJSA-1 tumor [3]; [10]): 2
tumor regression on average (SJSA-1 tumor [3]; [10]): 6%
SJSA-1 tumor regression (SJSA-1 tumor [3]; p.o. q3w 27 mg/kg, after two cycles (after the second treatment)): 27%
time of maximum increase in Puma (Bbc3) mRNA (Rat Bbc3 (PUMA); jejunum section, post last treatment): 3 h
time of return of Puma mRNA to baseline (Rat Bbc3 (PUMA); post treatment): 7 days
Puma mRNA expression in tumor (BBC3 (puma); [11]): dose-dependently increased
Puma mRNA expression increase in tumor (BBC3 (puma); [12]): more than 50 fold
Puma mRNA expression induction (BBC3 (puma); below the high dose): 5-6 fold
Puma mRNA induction Emax (BBC3 (puma); higher single dose, intravenously or per os): ≥ 70 fold induction
Puma mRNA expression max (BBC3 (puma); [13]): 180 fold
Puma mRNA induction Emax (BBC3 (puma); [14]): 162 fold
